# Reference: BigSolDB 2.1
smiles,measurement,setting,value
O=Cc1ccc2ccccc2c1,solubility (mole fraction),"in ethanol, 283.15 K",0.0161
same,solubility (mole fraction),"in ethanol, 288.15 K",0.0245
same,solubility (mole fraction),"in ethanol, 293.15 K",0.0377
same,solubility (mole fraction),"in ethanol, 298.15 K",0.0653
same,solubility (mole fraction),"in ethanol, 303.15 K",0.11
same,solubility (mole fraction),"in ethanol, 308.15 K",0.191
same,solubility (mole fraction),"in ethanol, 313.15 K",0.314
same,solubility (mole fraction),"in isopropanol, 283.15 K",0.0115
same,solubility (mole fraction),"in isopropanol, 288.15 K",0.0201
same,solubility (mole fraction),"in isopropanol, 293.15 K",0.0404
same,solubility (mole fraction),"in isopropanol, 298.15 K",0.0557
same,solubility (mole fraction),"in isopropanol, 303.15 K",0.0908
same,solubility (mole fraction),"in isopropanol, 308.15 K",0.144
same,solubility (mole fraction),"in isopropanol, 313.15 K",0.237
same,solubility (mole fraction),"in methanol, 283.15 K",0.00592
same,solubility (mole fraction),"in methanol, 288.15 K",0.00987
same,solubility (mole fraction),"in methanol, 293.15 K",0.0163
same,solubility (mole fraction),"in methanol, 298.15 K",0.0274
same,solubility (mole fraction),"in methanol, 303.15 K",0.0418
same,solubility (mole fraction),"in methanol, 308.15 K",0.0696
same,solubility (mole fraction),"in methanol, 313.15 K",0.119
same,solubility (mole fraction),"in n-butanol, 283.15 K",0.0195
same,solubility (mole fraction),"in n-butanol, 288.15 K",0.0281
same,solubility (mole fraction),"in n-butanol, 293.15 K",0.0425
same,solubility (mole fraction),"in n-butanol, 298.15 K",0.0561
same,solubility (mole fraction),"in n-butanol, 303.15 K",0.0758
same,solubility (mole fraction),"in n-butanol, 308.15 K",0.117
same,solubility (mole fraction),"in n-butanol, 313.15 K",0.164
same,solubility (mole fraction),"in n-heptane, 283.15 K",0.00944
same,solubility (mole fraction),"in n-heptane, 288.15 K",0.0128
same,solubility (mole fraction),"in n-heptane, 293.15 K",0.0164
same,solubility (mole fraction),"in n-heptane, 298.15 K",0.0192
same,solubility (mole fraction),"in n-heptane, 303.15 K",0.0255
same,solubility (mole fraction),"in n-heptane, 308.15 K",0.0345
same,solubility (mole fraction),"in n-heptane, 313.15 K",0.0415
same,solubility (mole fraction),"in n-hexane, 283.15 K",0.00727
same,solubility (mole fraction),"in n-hexane, 288.15 K",0.00923
same,solubility (mole fraction),"in n-hexane, 293.15 K",0.0128
same,solubility (mole fraction),"in n-hexane, 298.15 K",0.0159
same,solubility (mole fraction),"in n-hexane, 303.15 K",0.0189
same,solubility (mole fraction),"in n-hexane, 308.15 K",0.026
same,solubility (mole fraction),"in n-hexane, 313.15 K",0.0314
